From PubChem BioAssay (NCI)
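Here, GI50 denotes the concentration required for 50% inhibition of growth. TGI denotes the concentration required for complete inhibition of growth.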

Tests used:
Experiment in all cases: DTP human tumour cell line panel, 384-well format
786-0 renal = system: 786-0 renal
A498 renal = system: A498 renal
A549 NSCLC = system: A549 NSCLC
ACHN renal = system: ACHN renal
BT-549 breast = system: BT-549 breast
CAKI-1 renal = system: CAKI-1 renal
CCRF-CEM leukemia = system: CCRF-CEM leukemia
COLO 205 colon = system: COLO 205 colon
DU-145 prostate = system: DU-145 prostate
EKVX NSCLC = system: EKVX NSCLC
HCC-2998 colon = system: HCC-2998 colon
HCT-116 colon = system: HCT-116 colon
HCT-15 colon = system: HCT-15 colon
HL-60(TB) leukemia = system: HL-60(TB) leukemia
HOP-62 NSCLC = system: HOP-62 NSCLC
HOP-92 NSCLC = system: HOP-92 NSCLC
HS 578T breast = system: HS 578T breast
HT29 colon = system: HT29 colon
IGROV1 ovarian = system: IGROV1 ovarian
K-562 leukemia = system: K-562 leukemia
KM12 colon = system: KM12 colon
LOX IMVI melanoma = system: LOX IMVI melanoma
M14 melanoma = system: M14 melanoma
MALME-3M melanoma = system: MALME-3M melanoma
MCF7 breast = system: MCF7 breast
MDA-MB-231 breast = system: MDA-MB-231 breast
MDA-MB-435 melanoma = system: MDA-MB-435 melanoma
MDA-MB-468 breast = system: MDA-MB-468 breast
MOLT-4 leukemia = system: MOLT-4 leukemia
NCI-H226 lung = system: NCI-H226 lung
NCI-H23 lung = system: NCI-H23 lung
NCI-H322M lung = system: NCI-H322M lung
NCI-H460 NSCLC = system: NCI-H460 NSCLC
NCI-H522 lung = system: NCI-H522 lung
NCI/ADR-RES ovarian = system: NCI/ADR-RES ovarian
OVCAR-3 ovarian = system: OVCAR-3 ovarian
OVCAR-4 ovarian = system: OVCAR-4 ovarian
OVCAR-5 ovarian = system: OVCAR-5 ovarian
OVCAR-8 ovarian = system: OVCAR-8 ovarian
PC-3 prostate = system: PC-3 prostate
RPMI-8226 leukemia = system: RPMI-8226 leukemia
RXF 393 renal = system: RXF 393 renal
SF-268 CNS = system: SF-268 CNS
SF-295 CNS = system: SF-295 CNS
SF-539 CNS = system: SF-539 CNS
SK-MEL-28 melanoma = system: SK-MEL-28 melanoma
SK-MEL-5 melanoma = system: SK-MEL-5 melanoma
SK-OV-3 ovarian = system: SK-OV-3 ovarian
SN12C renal = system: SN12C renal
SNB-19 CNS = system: SNB-19 CNS
SNB-75 CNS = system: SNB-75 CNS
SR leukemia = system: SR leukemia
SW-620 colon = system: SW-620 colon
T-47D breast = system: T-47D breast
TK-10 renal = system: TK-10 renal
U251 glioblastoma = system: U251 glioblastoma
UACC-257 melanoma = system: UACC-257 melanoma
UO-31 renal = system: UO-31 renal

Compound: O=C(NO)c1ccc(CN(c2cnccn2)c2cnccn2)cc1
- GI50 ([…]-0 renal): 14.5 µM
- TGI (786-0 renal): 27.8 µM
- GI50 (A498 renal): 11.9 µM
- TGI (A498 renal): 25.8 µM
- GI50 (A549 NSCLC): 13.8 µM
- TGI (A549 NSCLC): 27.1 µM
- GI50 (ACHN renal): 11.2 µM
- TGI (ACHN renal): 23.8 µM
- GI50 (BT-549 breast): 11.5 µM
- TGI (BT-549 breast): 24.1 µM
- GI50 (CAKI-1 renal): 12.4 µM
- TGI (CAKI-1 renal): 26 µM
- GI50 (CCRF-CEM leukemia): 2.32 µM
- TGI (CCRF-CEM leukemia): 4.28 µM
- GI50 (COLO 205 colon): 3.36 µM
- TGI (COLO 205 colon): 8.11 µM
- GI50 (DU-145 prostate): 3.71 µM
- TGI (DU-145 prostate): 13.1 µM
- GI50 (EKVX NSCLC): 7.91 µM
- TGI (EKVX NSCLC): 20.2 µM
- GI50 (HCC-2998 colon): 12 µM
- TGI (HCC-2998 colon): 24.4 µM
- GI50 (HCT-116 colon): 3.01 µM
- TGI (HCT-116 colon): 11.2 µM
- GI50 (HCT-15 colon): 11.7 µM
- TGI (HCT-15 colon): 24.3 µM
- GI50 (HL-60(TB) leukemia): 7.18 µM
- TGI (HL-60(TB) leukemia): 18.9 µM
- GI50 (HOP-62 NSCLC): 12.4 µM
- TGI (HOP-62 NSCLC): 25.5 µM
- GI50 (HOP-92 NSCLC): 11.9 µM
- TGI (HOP-92 NSCLC): 24.5 µM
- GI50 (HS 578T breast): 10.5 µM
- TGI (HS 578T breast): 22.4 µM
- GI50 (HT29 colon): 15.6 µM
- TGI (HT29 colon): 29.7 µM
- GI50 (IGROV1 ovarian): 11.8 µM
- TGI (IGROV1 ovarian): 24.1 µM
- GI50 (K-562 leukemia): 7.51 µM
- TGI (K-562 leukemia): 20.2 µM
- GI50 (KM12 colon): 3.31 µM
- TGI (KM12 colon): 12.3 µM
- GI50 (LOX IMVI melanoma): 7.46 µM
- TGI (LOX IMVI melanoma): 19.8 µM
- GI50 (M14 melanoma): 3.93 µM
- TGI (M14 melanoma): 14.3 µM
- GI50 (MALME-3M melanoma): 3.38 µM
- TGI (MALME-3M melanoma): 12.6 µM
- GI50 (MCF7 breast): 4.65 µM
- TGI (MCF7 breast): 19.4 µM
- GI50 (MDA-MB-231 breast): 15.7 µM
- TGI (MDA-MB-231 breast): 29.4 µM
- GI50 (MDA-MB-435 melanoma): 4.96 µM
- TGI (MDA-MB-435 melanoma): 15 µM
- GI50 (MDA-MB-468 breast): 2.49 µM
- TGI (MDA-MB-468 breast): 10 µM
- GI50 (MOLT-4 leukemia): 1.92 µM
- TGI (MOLT-4 leukemia): 3.52 µM
- GI50 (NCI-H226 lung): 12.4 µM
- TGI (NCI-H226 lung): 25.1 µM
- GI50 (NCI-H23 lung): 2.01 µM
- TGI (NCI-H23 lung): 3.96 µM
- GI50 (NCI-H322M lung): 9.66 µM
- TGI (NCI-H322M lung): 22.4 µM
- GI50 (NCI-H460 NSCLC): 10.2 µM
- TGI (NCI-H460 NSCLC): 22.1 µM
- GI50 (NCI-H522 lung): 4.84 µM
- TGI (NCI-H522 lung): 16.2 µM
- GI50 (NCI/ADR-RES ovarian): 4.36 µM
- TGI (NCI/ADR-RES ovarian): 15.1 µM
- GI50 (OVCAR-3 ovarian): 3.27 µM
- TGI (OVCAR-3 ovarian): 12.2 µM
- GI50 (OVCAR-4 ovarian): 5.94 µM
- TGI (OVCAR-4 ovarian): 19 µM
- GI50 (OVCAR-5 ovarian): 11 µM
- TGI (OVCAR-5 ovarian): 31.2 µM
- GI50 (OVCAR-8 ovarian): 1.81 µM
- TGI (OVCAR-8 ovarian): 3.86 µM
- GI50 (PC-3 prostate): 7.66 µM
- TGI (PC-3 prostate): 20.9 µM
- GI50 (RPMI-8226 leukemia): 1.35 µM
- TGI (RPMI-8226 leukemia): 2.81 µM
- GI50 (RXF 393 renal): 3.83 µM
- TGI (RXF 393 renal): 14.2 µM
- GI50 (SF-268 CNS): 8.01 µM
- TGI (SF-268 CNS): 20.9 µM
- GI50 (SF-295 CNS): 2.62 µM
- TGI (SF-295 CNS): 6.48 µM
- GI50 (SF-539 CNS): 2.95 µM
- TGI (SF-539 CNS): 10.6 µM
- GI50 (SK-MEL-28 melanoma): 2.93 µM
- TGI (SK-MEL-28 melanoma): 7.33 µM
- GI50 (SK-MEL-5 melanoma): 4.27 µM
- TGI (SK-MEL-5 melanoma): 12.8 µM
- GI50 (SK-OV-3 ovarian): 12.2 µM
- TGI (SK-OV-3 ovarian): 25.1 µM
- GI50 (SN12C renal): 14.7 µM
- TGI (SN12C renal): 28.1 µM
- GI50 (SNB-19 CNS): 13 µM
- TGI (SNB-19 CNS): 26.6 µM
- GI50 (SNB-75 CNS): 5.98 µM
- TGI (SNB-75 CNS): 18.2 µM
- GI50 (SR leukemia): 1.77 µM
- TGI (SR leukemia): 3.87 µM
- GI50 (SW-620 colon): 10.6 µM
- TGI (SW-620 colon): 22.7 µM
- GI50 (T-47D breast): 5.59 µM
- TGI (T-47D breast): 17.6 µM
- GI50 (TK-10 renal): 12.9 µM
- TGI (TK-10 renal): 26.4 µM
- GI50 (U251 glioblastoma): 4.7 µM
- TGI (U251 glioblastoma): 15.6 µM
- GI50 (UACC-257 melanoma): 5.02 µM
- TGI (UACC-257 melanoma): 17.8 µM
- GI50 (UO-31 renal): 13.5 µM
- TGI (UO-31 renal): 26.6 µM
